For one series, the target named is T1, Human GLP-1 receptor (Homo sapiens, UniProt P43220).
T1 construct: The full-length cDNA was cloned in pcDNA3.1(+); expressed in transfected cells
Type of series: cell-based. The method, then: The novel peptidomimetics were screened for Human GLP-1 receptor (HGLP-1 R) agonist activity (in vitro), using the cAMP cell-based assay, in stably transfected CHO/human GLP1R cells. […] CHO cells were grown in Ham's F12 medium containing L-Glutamine (2 mM), HEPES (25 mM), NaHCO3 (1.1 g/L) and supplemented with NewBorn Calf Serum (NBCS; 10%), Penicillin (50 U/ml (v/v)) and Streptomycin (50 ug/ml (v/v)). Cells were split every 3 days 1:8.
The cDNA encoding the human GLP-1 receptor was isolated by RT-PCR according to standard protocol. The full-length cDNA was cloned in pcDNA3.1(+). […] Clones expressing the receptor were generated by G418 (800 μg/ml active, Sigma) selection. The stable clones were thereafter maintained at 500 ug/ml (G418). The selected clone was used between passages 9-25 for cAMP assays.
The trypsin was inactivated using Ham's F12 medium containing 10% NBCS and the cells were suspended in 2 ml of complete medium. […] The medium was aspirated off from the 12 well plate and the cells were washed once using Ham's F12 (plain). […] The cells were incubated with the test compounds for 30 min in humidified atmosphere and 37° C. After the incubation, the medium was removed and cells were washed once with plain Ham's F12. Subsequently, the cells were lysed by adding 500 ul of ice cold 0.1 N HCl to each well and shaking for 30 minutes at 200 rpm. […] The total cAMP was estimated from the sample according to the manufacturer's protocol using Cyclic AMP immunoassay kit (R&D systems, Minneapolis. MN). The remaining supernatant is used to determine the protein concentration using micro BCA (Sigma). Data is calculated as percent of control (Vehicle: water) and expressed as Mean±SD.

The target of the next series is DPP IV (Homo sapiens, UniProt P27487). The series can be described thus: Stability against DPP IV enzyme. Type of series: in vitro ADME. As to conditions: 2 μM, 37° C.; for half-life: read-out: half-life (t1/2) with DPP-IV enzyme. On the procedure: (§1) Reactions were terminated by the addition of TFA/H2O (15 mL, 10% (v/v)). […] The column was equilibrated with TFA/H2O, at a flow rate of 1 mL/min. […] The absorbance was monitored at 206 nm using UV detector and peaks were collected manually prior to ESI-MS analysis.
DPP IV, sequence (P27487 whole entry, species assumed): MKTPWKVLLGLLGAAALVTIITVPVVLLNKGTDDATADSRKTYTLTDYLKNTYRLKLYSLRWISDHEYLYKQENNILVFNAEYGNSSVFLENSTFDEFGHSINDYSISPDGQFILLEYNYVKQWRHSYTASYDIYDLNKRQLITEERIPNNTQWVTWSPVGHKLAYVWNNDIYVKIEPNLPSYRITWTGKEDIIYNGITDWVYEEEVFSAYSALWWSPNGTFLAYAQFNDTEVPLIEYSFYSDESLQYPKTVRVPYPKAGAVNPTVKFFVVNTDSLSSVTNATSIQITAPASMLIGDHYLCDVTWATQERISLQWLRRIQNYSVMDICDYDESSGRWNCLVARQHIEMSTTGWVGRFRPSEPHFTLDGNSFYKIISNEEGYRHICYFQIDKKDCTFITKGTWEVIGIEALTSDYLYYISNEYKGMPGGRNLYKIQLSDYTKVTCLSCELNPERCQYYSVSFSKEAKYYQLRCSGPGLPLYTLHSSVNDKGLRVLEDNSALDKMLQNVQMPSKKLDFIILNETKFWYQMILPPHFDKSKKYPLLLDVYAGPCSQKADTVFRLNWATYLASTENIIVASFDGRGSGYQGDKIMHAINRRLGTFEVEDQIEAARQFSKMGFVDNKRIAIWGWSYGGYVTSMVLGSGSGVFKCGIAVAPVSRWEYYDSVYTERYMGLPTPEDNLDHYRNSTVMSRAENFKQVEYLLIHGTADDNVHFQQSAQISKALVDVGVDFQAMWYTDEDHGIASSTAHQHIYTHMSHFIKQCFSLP

The nature of series [1]: Stability in simulated gastric fluid. As to conditions: 2 μM, 37° C., pH 1.5, pepsin; for half-life: simulated gi fluid, read-out: half-life (t1/2) in simulated gastric fluid. In kind it is in vitro ADME. The method, then:
as §1

The nature of series [2]: Stability in human plasma. In kind it is in vitro ADME. Particulars: 2 μM, 37° C.; for half-life: human, plasma, read-out: half-life (t1/2) in human plasma. On the procedure:
as §1

Series [3] in a line: Stability in simulated intestinal fluid. As to conditions: 2 μM, 37° C., pH 7.5; for half-life: simulated gi fluid, read-out: half-life (t1/2) in simulated intestinal fluid. In kind it is in vitro ADME. The method, then:
as §1

Series [4] in a line: Stability against liver microsomes. In kind it is in vitro ADME, human. As to conditions: 2 μM, 37° C.; for half-life: human, microsomes, read-out: half-life (t1/2) with liver microsomes. The method, then:
as §1
Background: Liver microsomes are a subcellular fraction often used to study metabolism.

The source of these data is US8841413B2, “Antidiabetic compounds” (Cadila Healthcare Limited, priority 2006, dated 2014).

Where two headings read alike, the source gives them in different places.

T1 sequence (P43220 24-463): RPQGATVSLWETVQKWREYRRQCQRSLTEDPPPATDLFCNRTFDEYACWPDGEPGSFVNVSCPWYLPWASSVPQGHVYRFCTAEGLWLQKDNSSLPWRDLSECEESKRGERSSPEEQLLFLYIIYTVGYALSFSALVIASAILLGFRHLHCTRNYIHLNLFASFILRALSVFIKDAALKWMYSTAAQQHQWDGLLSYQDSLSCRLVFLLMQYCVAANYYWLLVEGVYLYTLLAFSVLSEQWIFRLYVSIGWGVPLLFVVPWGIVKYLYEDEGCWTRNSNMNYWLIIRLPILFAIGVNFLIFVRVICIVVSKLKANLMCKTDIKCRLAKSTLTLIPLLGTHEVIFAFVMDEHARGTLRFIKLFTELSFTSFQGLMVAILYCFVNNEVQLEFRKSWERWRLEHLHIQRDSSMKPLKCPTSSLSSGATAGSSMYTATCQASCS

Take `CCc1cc(OC)ccc1-c1ccc(CC(NC(=O)[C@H](CC(=O)O)NC(=O)[C@H](CO)NC(=O)[C@@H](NC(=O)[C@H](Cc2ccccc2)NC(=O)[C@@H](NC(=O)CNC(=O)[C@H](CCC(N)=O)NC(=O)C2(NC(=O)[C@@H](N)Cc3c[nH]cn3)CC2)[C@@H](C)O)[C@@H](C)O)C(=O)NC(Cc2ccc(-c3ccccc3C)cc2)C(N)=O)cc1` (single isomer, unassigned) [compound 17]: the “Human GLP-1 R activity (cAMP release), % activity with respect to control” value on Human GLP-1 receptor (1 nM test compound) was found to be 78 ± 0.12%; at Human GLP-1 receptor (10 nM test compound), 99 ± 0.15%; on Human GLP-1 receptor (100 nM test compound), 99 ± 0.18%; at Human GLP-1 receptor (1 μM test compound) it was 99 ± 0.03%; at Human GLP-1 receptor (10 μM test compound) it was 99 ± 0.09%. Further, the “% degradation in 24 h when incubated with DPP-IV enzyme” value (“% degradation … with DPP-IV enzyme” below) on DPP IV worked out at 00%. In addition, the half-life was > 24 h at DPP IV; 4 h in series [1]; > 24 h in series [2]; > 24 h in series [3]; 2 h in series [4]. Moreover, the “% degradation in 24 h when incubated with simulated gastric fluid” value (from here on “% degradation … with simulated gastric fluid”) in series [1] was 49%. Moreover, the “% degradation in 24 h when incubated with human plasma” value (“% degradation … with human plasma” for short) in series [2] stood at 00%. Also, the “% degradation in 24 h when incubated with simulated intestinal fluid” value (from here on “% degradation … with simulated intestinal fluid”) in series [3] is recorded as 00%. Further, in series [4], the “% degradation in 24 h when incubated with liver microsomes” value (“% degradation … with liver microsomes” below) amounted to 82%.

`CCc1cc(OC)ccc1-c1ccc(CC(NC(=O)[C@H](CC(=O)O)NC(=O)[C@H](CO)NC(=O)[C@@H](NC(=O)[C@H](Cc2ccccc2)NC(=O)[C@@H](NC(=O)CNC(=O)[C@H](CCC(N)=O)NC(=O)C2(NC(=O)[C@@H](N)Cc3c[nH]cn3)CC2)[C@@H](C)O)[C@@H](C)O)C(=O)NC(Cc2ccc(-c3ccccc3C)nc2)C(N)=O)cc1` (single isomer, unassigned) [compound 18]: the “Human GLP-1 R activity (cAMP release), % activity with respect to control” value came out at 86 ± 0.11% at Human GLP-1 receptor (1 nM test compound); 99 ± 0.09% on Human GLP-1 receptor (10 nM test compound); 99 ± 0.06% on Human GLP-1 receptor (100 nM test compound); 99 ± 0.14% on Human GLP-1 receptor (1 μM test compound); 99 ± 0.19% on Human GLP-1 receptor (10 μM test compound). Also, the “% degradation … with DPP-IV enzyme” value at DPP IV came to 00%. Also, the half-life at DPP IV was > 24 h; in series [1], 4 h; in series [2], > 24 h; in series [3] it was > 24 h; in series [4], 2 h. In series [1], the “% degradation … with simulated gastric fluid” value is on record as 52%. Moreover, the “% degradation … with human plasma” value in series [2] is on record as 00%. The “% degradation … with simulated intestinal fluid” value in series [3] was 00%. Also, the “% degradation … with liver microsomes” value in series [4] turned out to be 81%.

In the case of `CCc1cc(OC)ccc1-c1ccc(CC(NC(=O)[C@H](CC(=O)O)NC(=O)[C@H](CO)NC(=O)[C@@H](NC(=O)[C@H](Cc2ccccc2)NC(=O)[C@@H](NC(=O)CNC(=O)[C@H](CCC(N)=O)NC(=O)C2(NC(=O)[C@@H](N)Cc3c[nH]cn3)CC2)[C@@H](C)O)[C@@H](C)O)C(=O)NC(Cc2ccc(-c3ccccc3F)cc2)C(N)=O)cc1` (single isomer, unassigned) [compound 19], the “Human GLP-1 R activity (cAMP release), % activity with respect to control” value on Human GLP-1 receptor (1 nM test compound) turned out to be 96 ± 0.02%; at Human GLP-1 receptor (10 nM test compound), 99 ± 0.46%; at Human GLP-1 receptor (100 nM test compound), 99 ± 0.41%; at Human GLP-1 receptor (1 μM test compound), 99 ± 0.66%; on Human GLP-1 receptor (10 μM test compound), 99 ± 0.03%. The “% degradation … with DPP-IV enzyme” value at DPP IV is reported as 00%. Moreover, the half-life at DPP IV was > 24 h; in series [1], 4 h; in series [2] it was > 24 h; in series [3], > 24 h; in series [4] it was 2 h. Further, the “% degradation … with simulated gastric fluid” value in series [1] is reported as 43%. Besides, the “% degradation … with human plasma” value in series [2] was determined as 00%. In addition, in series [3], the “% degradation … with simulated intestinal fluid” value is reported as 00%. The “% degradation … with liver microsomes” value in series [4] was found to be 84%.

For the compound `CCc1cc(OC)ccc1-c1ccc(CC(NC(=O)[C@H](CC(=O)O)NC(=O)[C@H](CO)NC(=O)[C@@H](NC(=O)[C@H](Cc2ccccc2)NC(=O)[C@@H](NC(=O)CNC(=O)[C@H](CCC(N)=O)NC(=O)C2(NC(=O)[C@@H](N)Cc3c[nH]cn3)CC2)[C@@H](C)O)[C@@H](C)O)C(=O)NC(Cc2ccc(-c3ccccc3C(F)(F)F)cc2)C(N)=O)cc1` (single isomer, unassigned) [compound 20], the “Human GLP-1 R activity (cAMP release), % activity with respect to control” value on Human GLP-1 receptor (1 nM test compound) came to 96 ± 0.09%; on Human GLP-1 receptor (10 nM test compound), 99 ± 0.07%; on Human GLP-1 receptor (100 nM test compound), 99 ± 0.04%; at Human GLP-1 receptor (1 μM test compound), 99 ± 0.01%; at Human GLP-1 receptor (10 μM test compound), 99 ± 0.08%. In addition, the “% degradation … with DPP-IV enzyme” value at DPP IV was found to be 00%. Moreover, the half-life on DPP IV was > 24 h; in series [1], 4 h; in series [2] it was > 24 h; in series [3] it was > 24 h; in series [4] it was 2 h. Besides, the “% degradation … with simulated gastric fluid” value in series [1] is reported as 41%. For the same compound, the “% degradation … with human plasma” value in series [2] is listed as 00%. Also, the “% degradation … with simulated intestinal fluid” value in series [3] was 00%. Also, in series [4], the “% degradation … with liver microsomes” value was determined as 80%.

Consider `CCc1cc(OC)ccc1-c1ccc(CC(NC(=O)[C@H](CC(=O)O)NC(=O)[C@H](CO)NC(=O)[C@@H](NC(=O)C(C)(Cc2ccccc2F)NC(=O)[C@@H](NC(=O)CNC(=O)[C@H](CCC(N)=O)NC(=O)C(C)(C)NC(=O)[C@@H](N)Cc2c[nH]cn2)[C@@H](C)O)[C@@H](C)O)C(=O)NC(Cc2ccc(-c3ccccc3C)cc2)C(N)=O)cc1` (single isomer, unassigned) [compound 29], for which the “Human GLP-1 R activity (cAMP release), % activity with respect to control” value on Human GLP-1 receptor (1 nM test compound) came to 99 ± 0.12%; on Human GLP-1 receptor (10 nM test compound), 99 ± 0.15%; at Human GLP-1 receptor (100 nM test compound), 99 ± 0.18%; on Human GLP-1 receptor (1 μM test compound), 99 ± 0.03%; on Human GLP-1 receptor (10 μM test compound), 99 ± 0.09%. The “% degradation … with DPP-IV enzyme” value at DPP IV came out at 00%. Also, the half-life (on DPP IV; in series [1]; in series [2]; in series [3]) was > 24 h in each case. Further, in series [1], the “% degradation … with simulated gastric fluid” value is recorded as 00%. The “% degradation … with human plasma” value in series [2] came out at 00%. In addition, the “% degradation … with simulated intestinal fluid” value in series [3] is 00%. In addition, the “half-life (t1/2) with liver microsomes” value in series [4] was “(5) h”. For the same compound, the “% degradation … with liver microsomes” value in series [4] was 35%.

For `CCc1cc(OC)ccc1-c1ccc(CC(NC(=O)[C@H](CC(=O)O)NC(=O)[C@H](CO)NC(=O)[C@@H](NC(=O)C(C)(Cc2ccccc2F)NC(=O)[C@@H](NC(=O)CNC(=O)[C@H](CCC(N)=O)NC(=O)C(C)(C)NC(=O)[C@@H](N)Cc2c[nH]cn2)[C@@H](C)O)[C@@H](C)O)C(=O)NC(Cc2ccc(-c3ccccc3C)nc2)C(N)=O)cc1` (single isomer, unassigned) [compound 30], the “Human GLP-1 R activity (cAMP release), % activity with respect to control” value on Human GLP-1 receptor (1 nM test compound) turned out to be 93 ± 0.11%; at Human GLP-1 receptor (10 nM test compound) it was 99 ± 0.09%; at Human GLP-1 receptor (100 nM test compound), 99 ± 0.06%; on Human GLP-1 receptor (1 μM test compound) it was 99 ± 0.14%; at Human GLP-1 receptor (10 μM test compound), 99 ± 0.19%. The “% degradation … with DPP-IV enzyme” value at DPP IV was determined as 00%. The half-life (on DPP IV; in series [1]; in series [2]; in series [3]) was > 24 h in each case. Also, the “% degradation … with simulated gastric fluid” value in series [1] was 00%. Besides, in series [2], the “% degradation … with human plasma” value is recorded as 00%. The “% degradation … with simulated intestinal fluid” value in series [3] is reported as 00%. Besides, the “half-life (t1/2) with liver microsomes” value in series [4] is listed as “(5) h”. Moreover, the “% degradation … with liver microsomes” value in series [4] worked out at 33%.
